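How tested: cells in 96-well plates exposed to compound for 48 hours at five concentrations. GI50 = concentration required for 50% inhibition of growth. At the TGI there is no net growth.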 Activity calls are given as the source filed them. No stated cut-off is given here; in the data, active means GI50 below about 0.43 µM; inactive means the rest.
Experiments:
Experiment in all cases: NCI tumour cell line growth inhibition, 48 h
[1] = tested on: IGROV1 ovarian
[2] = tested on: A549 NSCLC
[3] = tested on: M14 melanoma
[4] = tested on: SK-MEL-5 melanoma
[5] = tested on: HCT-116 colon
[6] = tested on: SNB-75 CNS
[7] = tested on: UACC-62 melanoma
[8] = tested on: NCI-H23 lung

Compound	GI50 [1]	TGI [1]	GI50 [2]	TGI [2]	GI50 [3]	TGI [3]	GI50 [4]	TGI [4]	GI50 [5]	TGI [5]	GI50 [6]	TGI [6]	GI50 [7]	TGI [7]	GI50 [8]	TGI [8]	outcome [2]	outcome [5]	outcome [6]
COc1ccc(-c2nc(-c3nc4ccc(Cl)cc4[nH]3)c3ccccn23)cc1	4.95 µM	22.9 µM	1.82 µM	4.27 µM	4.24 µM	18.4 µM	4.27 µM	27.8 µM	2.41 µM	5.5 µM	1.87 µM	3.94 µM	4.89 µM	20.9 µM	7.52 µM	45.7 µM			
O=C(O)CCNC1CCCCC1	> 100 µM	> 100 µM	> 100 µM	> 100 µM	> 100 µM	> 100 µM	> 100 µM	> 100 µM	> 100 µM	> 100 µM	> 100 µM	> 100 µM	> 100 µM	> 100 µM	> 100 µM	> 100 µM			
Cc1ccc2c(c1)Sc1c(ccc3ccccc13)N2	6.48 µM	> 100 µM	92.8 µM	> 100 µM	> 100 µM	> 100 µM	12.4 µM	> 100 µM	8.37 µM	> 100 µM	15.5 µM	> 100 µM	73.8 µM	> 100 µM	> 100 µM	> 100 µM			
O=C(CCc1nnc2sc(-c3ccc(Cl)cc3Cl)nn12)c1nc2ccccc2[nH]1	0.953 µM	6.35 µM	1.88 µM	4.96 µM	0.282 µM	1.03 µM	1.26 µM	2.51 µM	0.247 µM	0.692 µM	1.48 µM	3.53 µM	1.19 µM	2.62 µM	0.694 µM	3 µM			
CC1CN1C(=O)NCCCCCCNC(=O)N1CC1C (configuration not stated)		> 100 µM		> 100 µM		> 100 µM		> 100 µM		> 100 µM		> 100 µM		> 100 µM		> 100 µM			
O=C(CC1(O)C(=O)Nc2ccccc21)c1ccncc1 (configuration not stated)		> 100 µM		> 100 µM		> 100 µM		> 100 µM		> 100 µM		> 100 µM		> 100 µM		> 100 µM			
Cc1c(C(=O)C/C(=N/NC(=O)C[N+](C)(C)C)C(=O)Nc2ccc(Cl)cc2)[n+](=O)c2ccccc2n1O		> 100 µM		> 100 µM		> 100 µM		> 100 µM		> 100 µM		> 100 µM		> 100 µM		> 100 µM			
C/C(CC(=O)Nc1cc(C)ccc1C)=N\NC(=O)c1ccncc1		> 100 µM		> 100 µM		> 100 µM		> 100 µM		> 100 µM		> 100 µM		> 100 µM		> 100 µM			
O=C(O)c1nn(-c2ccccc2-c2n[nH]c(=O)[nH]c2=O)c(=O)[nH]c1=O		> 100 µM		> 100 µM		> 100 µM		> 100 µM		> 100 µM		> 100 µM		> 100 µM		> 100 µM			
Cc1ccc(C(=O)NC(C)C)cc1-c1ccc(C(=O)NCC2CC2)cc1	> 25 µM	> 25 µM	> 25 µM	> 25 µM	> 25 µM	> 25 µM	> 25 µM	> 25 µM	> 25 µM	> 25 µM	> 25 µM	> 25 µM	> 25 µM	> 25 µM	> 25 µM	> 25 µM			
CCCC1N2CCCCC2[C@@H]2c3[nH]c4ccccc4c3CCN12 (some centres not stated)		> 100 µM		> 100 µM		> 100 µM		> 100 µM		> 100 µM		> 100 µM		> 100 µM		> 100 µM			
Nc1nccc(-c2c(-c3ccc(F)cc3)ncn2C2CCC(O)CC2)n1 (configuration not stated)	4.32 µM	24.8 µM	4.03 µM	> 25 µM	14 µM	> 25 µM	3.94 µM	> 25 µM	9.75 µM	> 25 µM	6.61 µM	> 21 µM	10.6 µM	> 25 µM	9.77 µM	> 25 µM			
CC(=O)OCC1OC(NC(=S)N/N=C2\CC(c3ccccc3)Oc3ccccc32)C(OC(C)=O)C(OC(C)=O)C1OC(C)=O (configuration not stated)		> 100 µM		> 100 µM		> 100 µM		> 100 µM		> 100 µM		> 100 µM		> 100 µM		> 100 µM			
COCCCNC(=O)C1C(=O)C(=O)N(CCCOC)C1=O (configuration not stated)		> 100 µM		> 100 µM		> 100 µM		> 100 µM		> 100 µM		> 100 µM		> 100 µM		> 100 µM			
Cc1ccc(NC(=O)CC(=O)n2nc(C)c(N=Nc3ccccc3C(=O)O)c2C)cc1		> 100 µM		> 100 µM		> 100 µM		> 100 µM		> 100 µM		> 100 µM		> 100 µM		> 100 µM			
COc1ccc(C(=O)C#Cc2cnc(OC)nc2OC)cc1	20300 µM			15.7 µM	27900 µM	2.64 µM	25600 µM			2.75 µM		4.8 µM	31900 µM	2.8 µM	35000 µM	3.08 µM	inactive	inactive	inactive
COc1ccc(-c2onc(N)c2-c2cc(OC)c3c(c2)OCO3)cc1	8.44 µM	> 100 µM	2.95 µM	> 100 µM	1.49 µM	7.28 µM	2.8 µM	> 25.6 µM	2.32 µM	50 µM	1.75 µM	7.32 µM	1.96 µM	> 46.9 µM	2.87 µM	> 100 µM			
O=C(O)C(=Cc1ccc(-c2ccccc2)cc1)C(=O)O		> 100 µM		> 58.8 µM		29.5 µM		23.9 µM		24.7 µM		28 µM		26.1 µM		32.2 µM			
C#CCNC(=O)c1cccc2c1cc(C)n2-c1nc2c(c(NCc3ccccc3)n1)CCCC2	0.0276 µM	0.102 µM	0.0381 µM	0.124 µM	0.0195 µM	0.0439 µM	0.00886 µM	0.0235 µM	0.0109 µM	0.0378 µM	0.0365 µM	0.0872 µM	0.0158 µM	0.0359 µM	0.0195 µM	0.0563 µM			

Reference: PubChem BioAssay (NCI)
